These results are taken from PubChem BioAssay AID2488 (The Scripps Research Institute Molecular Screening Center, 2010).

As a reminder, the IC50 is the concentration that inhibits the measured activity by half.

Active and inactive are the calls of the source.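 The calls were made as follows: active = IC50 at or below 10 µM; inactive = IC50 above 10 µM.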

The target of this assay is HCV core protein (core106) dimerization, Hepatitis C virus. As to the kind of experiment: core106 dimer disruption concentration response – biochemical, TR-FRET, dose response, powder samples, late-stage follow-up (AID 2488). The settings on record: GST/Flag-core106 dimerization, TR-FRET HTRF.
Consider `O=C(/C=C/c1ccc(Br)o1)OCc1nc2ccsc2c(=O)[nH]1`, for which the IC50 is > 49.8 µM (inactive). The figure for `CCCCCC#CCC#CCC#CCC#CCCCC(=O)O` is > 49.8 µM (inactive); for `COc1ccc(NC(=O)CN(C)C(=O)c2cc3c(s2)CCC3)cc1` it is “inactive”. In the case of `COCCN(C(=O)COC(=O)c1cc2c(s1)CCC2)c1c(N)n(Cc2ccccc2)c(=O)[nH]c1=O`, the IC50 result was “inactive”. The figure for `CC1=C(/C=C/C(C)=C/C=C/C(C)=C/C=C/C=C(C)/C=C/C=C(C)/C=C/C2=C(C)CCCC2(C)C)C(C)(C)CCC1` is > 49.8 µM (inactive); for `Cc1ccccc1N1C(=O)/C(=C/c2ccco2)C(=O)NC1=S` it is “inactive”. The value for `CCN(CC(=O)Nc1c(F)cccc1F)C(=O)/C=C/c1ccc2ccccc2n1` was “inactive”; that for `Cc1ccc(Cc2c(C)nc3nc(SCC(=O)NCCCN4CCCCCC4)nn3c2C)cc1` was 3.67 µM.
